Laboratory results: patent US8048455B2, “Treatment of cancer and inflammatory disorder” (Academia Sinica, priority 2006, dated 2011)

Tested on: COX-2 mRNA
Assay: COX-2 mRNA expression (RT-PCR) in LPS-stimulated macrophages
Type: cell-based, murine
Conditions: 75 μg/mL
Method: For each RT-PCR analysis, 2 μg of total RNA isolated with TRIZOL® Reagent was used to synthesize 1st-strand cDNA using […]™ II Reverse Transcriptase (Invitrogen). The iNOS and COX-2 genes were amplified and analyzed using specific oligonucleotide primers and PCR reactions by method described in Chiang et al. Br J Pharmacol 2005; 146:352-63).
It was further examined whether dLGG affects COX-2 mRNA and protein expression using RT-PCR and immunoblotting. Cells were treated with dLGG for 1 hour, then LPS (1 μg/mL) was added for 18 hours. Total cellular protein (20 μg) was subjected to immunoblotting. Quantification of COX-2 mRNA and protein expression involved normalization to GA3PDH by densitometry.

CC/C=C\C/C=C\C/C=C\CCCCCCCC(=O)OC[C@H](CO[C@@H]1O[C@H](CO)[C@H](O)[C@H](O)[C@H]1O)OC(=O)CCCCCCC/C=C\C/C=C\C/C=C\CC [dLGG, 1,2-di-O-α-linolenoyl-3-O-β-galactopyranosyl-sn-glycerol]
Inhibition of COX-2 mRNA expression: ~29%
